Measurements as given in patent US20240123013A1, “SUPPLEMENT FOR ARTHRITIS AND PSORIASIS” (priority 2021, published 2024).

Experiment: Comparison of arthritis gel compositions formulated with different crystalline CBDs (Example 12)
Settings: gels differ only in the crystalline CBD used
Method: Two hydroalcoholic arthritis gel compositions are prepared according to Example 2, the only difference being that the crystalline CBD used in the formulation is either of type A (needle-like crystals; FIG. 1) or type B (bunch/cluster-like; FIG. 2).

C=C(C)[C@@H]1CCC(C)=C[C@H]1c1c(O)cc(CCCCC)cc1O [type A CBD, cannabidiol]
Activity of CBD in hydroalcoholic arthritis gel, crystal type A versus type B: significantly more active than type B CBD | Activity of CBD in hydroalcoholic arthritis gel, crystal type A versus type B (listed as crystal structure A): significantly more potent
